Experiments:
[1] = molecular target: human adenosine A2A receptors (Homo sapiens, UniProt P29274)
Method: CHO cells expressing the human adenosine A2A receptors were grown overnight as a monolayer in 24 wells tissue culture plates (400 μl/well; 2×10^5 cells/well). cAMP generation was performed in Dulbecco's Modified Eagles Medium (DMEM)/N-2-hydroxyethylpiperazin-N′-2-ethansulfonic acid HEPES) buffer (0.60 g HEPES/50 ml DMEM pH 7.4). To each well, washed three times with DMEM/HEPES buffer (250 μl), 100 μl DMEM/HEPES buffer, 100 μl adenosine deaminase (final concentration 5 IU/ml) and 100 μl of a mixture of rolipram and cilostamide (final concentration 50 μM each) were added. After incubation for 40 minutes at 37° C., 100 μL agonist was added. After 15 minutes at 37° C., the reaction was terminated by removing the medium and adding 200 μl 0.1 M HCl. Wells were stored at −20° C. until assay.
The amounts of cAMP were determined after a protocol with cAMP binding protein^12 with the following minor modifications. As a buffer was used 150 mM K2HPO4/10 mM EDTA/0.2% Bovine Serum Albumine (BSA) at pH 7.5. Samples (20 μl+30 μl 0.1 M HCl) were incubated for at least 2.5 hours at 0° C. before filtration over Whatman GF/B filters. […] Filters were counted in Packard Emulsifier Safe scintillation fluid (3.5 ml) after 24 hours of extraction.
All compounds prepared were also tested in a functional assay.

adenosine A1 receptor = molecular target: T1, adenosine A1 receptor (Rattus norvegicus, UniProt P25099); test: biochemical; conditions: read-out: % displacement at 10^-5 M, A1
T1 sequence (P25099 1-326): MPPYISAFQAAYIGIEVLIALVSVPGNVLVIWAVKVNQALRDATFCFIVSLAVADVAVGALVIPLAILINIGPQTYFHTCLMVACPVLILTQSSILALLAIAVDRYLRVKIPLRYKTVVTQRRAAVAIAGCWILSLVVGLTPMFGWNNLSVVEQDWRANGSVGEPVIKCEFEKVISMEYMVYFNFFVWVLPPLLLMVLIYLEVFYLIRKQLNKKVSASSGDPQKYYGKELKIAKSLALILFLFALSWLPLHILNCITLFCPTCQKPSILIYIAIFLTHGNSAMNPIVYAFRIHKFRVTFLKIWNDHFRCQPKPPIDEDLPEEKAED
Method: (§1) Incubations were carried out for 1 hr at 37° C. and were terminated by rapid filtration over Whatman GF/B filters, using a Brandell cell harvester (Brandell, Gaithersburg, Md.). Tubes were washed three times with 3 ml of buffer. Radioactivity was determined in a Beckman 5500B γ-counter. Nonspecific binding was determined in the presence of 10^−5 M R-PIA.
(§2) All compounds prepared were tested in radioligand binding assays to determine their affinities for the adenosine A1 receptor in rat brain cortex, the A2A receptor in rat striatum and the human A3 receptor as expressed in HEK 293 cells (Table 2, hereinafter). The Ki values were computed from the displacement curves obtained by nonlinear regression of the competition curves with the software package Prism (Graph Pad, San Diego, Calif.)
(§3) For the adenosine A1 receptor, the tritiated antagonist, [^3H]-1,3-dipropyl-8-cyclopentylxanthine ([^3H]DPCPX), and for the adenosine A2A receptor, the tritiated antagonist [^3H]ZM 241385 were used. Since radiolabeled antagonists are not commercially available for the adenosine A3 receptor, [125I]AB-MECA, an A3 receptor agonist, was used. Displacement experiments were performed in the absence of GTP.

adenosine A2A receptor = adenosine A2A receptor (Rattus norvegicus, UniProt P30543); test: biochemical; conditions: [3H]ZM241385, rat striatal membranes; 10 μM; n=2, mean value
Method: as §1, §2, §3

human A3 receptor = molecular target: T2, human A3 receptor (Homo sapiens, UniProt P0DMS8); test: Radioligand binding, displacement of [125I]AB-MECA from human A3 receptor expressed in HEK 293 cells
T2 construct: expressed in transfected cells; host or cells: HEK 293
T2 sequence (P0DMS8 1-318): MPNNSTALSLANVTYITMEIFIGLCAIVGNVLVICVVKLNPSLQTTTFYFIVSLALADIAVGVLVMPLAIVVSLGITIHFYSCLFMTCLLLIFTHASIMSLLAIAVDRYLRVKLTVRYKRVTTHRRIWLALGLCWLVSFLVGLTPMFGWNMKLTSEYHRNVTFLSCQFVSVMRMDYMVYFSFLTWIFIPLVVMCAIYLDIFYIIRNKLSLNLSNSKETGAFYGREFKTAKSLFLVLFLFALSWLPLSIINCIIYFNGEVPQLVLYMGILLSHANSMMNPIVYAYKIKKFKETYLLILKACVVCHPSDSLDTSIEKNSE
Method: as §1, §2, §3

In the case of `CNc1nc2c(N)nc(I)nc2n1[C@@H]1O[C@H](CO)[C@@H](O)[C@H]1O` [Compound 7, 2-Iodo-8-methylaminoadenosine], the “% cAMP production hA2A” value [1] is reported as 23% (20–25), the inhibition at 10 µM (adenosine A1 receptor) is reported as 35.2% and the “% displacement at 10^-5 M, A2A” value (adenosine A2A receptor) is reported as 43.3%. The melting point was 162 to 164 °C and the Ki (human A3 receptor) was 7.31 ± 0.44 µM.
